Measurements as given in patent US20210070748A1, “INHIBITORS OF BRUTONS TYROSINE KINASE” (Pharmacyclics LLC, priority 2015, published 2021).

Legend:
Format in all cases: biochemical
[1] = target: LCK (Homo sapiens, UniProt P06239); assay: Inhibition of a panel of kinases, in vitro HotSpot kinase assay: LCK; settings: D-compounds panel data; 1 μM ATP; read-out: IC50 LCK
[2] = target: T1, BTK-WT (Homo sapiens, UniProt Q06187); assay: Btk in vitro inhibitory activity (one of Method A TR-FRET, Method B electrophoretic mobility shift, Method C radiometric filter binding); settings: D-compounds panel data; read-out: IC50 BTK-WT
T1 construct: purified from insect cells as a full-length construct containing an N-terminal 6X-His tag; His6 (N); made in house; host or cells: insect cells (baculovirus Sf21 in Method B)
T1 sequence (Q06187 whole entry): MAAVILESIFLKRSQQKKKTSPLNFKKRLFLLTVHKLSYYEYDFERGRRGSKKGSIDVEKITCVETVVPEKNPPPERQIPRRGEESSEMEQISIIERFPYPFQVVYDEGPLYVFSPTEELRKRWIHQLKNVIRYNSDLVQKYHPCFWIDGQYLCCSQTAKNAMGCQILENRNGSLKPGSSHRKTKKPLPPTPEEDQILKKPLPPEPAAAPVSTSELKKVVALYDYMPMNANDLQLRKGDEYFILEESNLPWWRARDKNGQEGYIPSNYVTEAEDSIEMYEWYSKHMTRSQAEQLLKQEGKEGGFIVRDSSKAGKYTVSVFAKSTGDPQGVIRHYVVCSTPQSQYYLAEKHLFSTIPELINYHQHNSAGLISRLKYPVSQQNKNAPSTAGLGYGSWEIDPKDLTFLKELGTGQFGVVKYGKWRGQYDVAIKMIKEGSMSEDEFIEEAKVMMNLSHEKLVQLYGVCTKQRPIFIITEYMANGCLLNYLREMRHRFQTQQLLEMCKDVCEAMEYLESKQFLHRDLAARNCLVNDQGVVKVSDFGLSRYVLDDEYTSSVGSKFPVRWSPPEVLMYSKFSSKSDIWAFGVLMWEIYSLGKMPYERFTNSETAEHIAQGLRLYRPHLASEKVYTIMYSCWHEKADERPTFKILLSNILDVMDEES

[3] = target: T2, ITK (Homo sapiens, UniProt Q08881); assay: Inhibition of a panel of kinases, in vitro HotSpot kinase assay: ITK; settings: D-compounds panel data; 1 μM ATP
T2 sequence (Q08881 1-620): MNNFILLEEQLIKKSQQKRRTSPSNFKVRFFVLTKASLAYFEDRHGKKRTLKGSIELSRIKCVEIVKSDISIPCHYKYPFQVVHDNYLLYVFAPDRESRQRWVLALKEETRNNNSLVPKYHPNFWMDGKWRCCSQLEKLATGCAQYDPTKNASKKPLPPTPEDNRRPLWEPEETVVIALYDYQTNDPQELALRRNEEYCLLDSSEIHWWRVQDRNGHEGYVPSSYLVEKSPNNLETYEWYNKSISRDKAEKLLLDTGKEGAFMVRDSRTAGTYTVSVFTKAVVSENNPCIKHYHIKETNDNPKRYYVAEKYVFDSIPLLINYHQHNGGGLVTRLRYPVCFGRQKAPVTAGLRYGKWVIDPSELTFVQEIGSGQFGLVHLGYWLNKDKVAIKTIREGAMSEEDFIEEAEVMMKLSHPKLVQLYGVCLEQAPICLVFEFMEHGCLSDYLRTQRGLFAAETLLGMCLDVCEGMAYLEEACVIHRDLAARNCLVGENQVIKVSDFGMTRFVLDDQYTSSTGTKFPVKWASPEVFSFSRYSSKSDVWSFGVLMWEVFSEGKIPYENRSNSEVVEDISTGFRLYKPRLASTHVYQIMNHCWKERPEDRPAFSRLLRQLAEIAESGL
Experimental: (§1) The degree of inhibition of a panel of kinases is determined using the in vitro HotSpot kinase assay (purified enzymes, ^33P-ATP, an appropriate substrate and 1 μM ATP).

[4] = target: T3, TEC (Homo sapiens, UniProt P42680); assay: Inhibition of a panel of kinases, in vitro HotSpot kinase assay: TEC; settings: D-compounds panel data; 1 μM ATP
T3 sequence (P42680 1-631): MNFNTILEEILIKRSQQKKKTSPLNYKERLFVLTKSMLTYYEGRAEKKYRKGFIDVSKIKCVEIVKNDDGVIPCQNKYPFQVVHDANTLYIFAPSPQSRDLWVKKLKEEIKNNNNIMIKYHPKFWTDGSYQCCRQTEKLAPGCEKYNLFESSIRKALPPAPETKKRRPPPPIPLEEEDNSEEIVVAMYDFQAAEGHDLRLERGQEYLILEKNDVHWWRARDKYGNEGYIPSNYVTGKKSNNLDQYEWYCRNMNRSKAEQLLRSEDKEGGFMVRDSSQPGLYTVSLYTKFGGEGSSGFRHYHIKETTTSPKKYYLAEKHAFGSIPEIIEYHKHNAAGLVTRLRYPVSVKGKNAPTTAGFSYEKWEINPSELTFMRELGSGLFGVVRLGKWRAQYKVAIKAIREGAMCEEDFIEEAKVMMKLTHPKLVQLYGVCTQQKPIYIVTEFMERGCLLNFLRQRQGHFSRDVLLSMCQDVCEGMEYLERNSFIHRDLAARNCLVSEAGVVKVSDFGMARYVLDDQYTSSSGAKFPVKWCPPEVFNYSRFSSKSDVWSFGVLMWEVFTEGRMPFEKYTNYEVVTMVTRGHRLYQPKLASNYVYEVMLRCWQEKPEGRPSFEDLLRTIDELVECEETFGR
Experimental: as §1

Sequence of LCK (P06239 whole entry): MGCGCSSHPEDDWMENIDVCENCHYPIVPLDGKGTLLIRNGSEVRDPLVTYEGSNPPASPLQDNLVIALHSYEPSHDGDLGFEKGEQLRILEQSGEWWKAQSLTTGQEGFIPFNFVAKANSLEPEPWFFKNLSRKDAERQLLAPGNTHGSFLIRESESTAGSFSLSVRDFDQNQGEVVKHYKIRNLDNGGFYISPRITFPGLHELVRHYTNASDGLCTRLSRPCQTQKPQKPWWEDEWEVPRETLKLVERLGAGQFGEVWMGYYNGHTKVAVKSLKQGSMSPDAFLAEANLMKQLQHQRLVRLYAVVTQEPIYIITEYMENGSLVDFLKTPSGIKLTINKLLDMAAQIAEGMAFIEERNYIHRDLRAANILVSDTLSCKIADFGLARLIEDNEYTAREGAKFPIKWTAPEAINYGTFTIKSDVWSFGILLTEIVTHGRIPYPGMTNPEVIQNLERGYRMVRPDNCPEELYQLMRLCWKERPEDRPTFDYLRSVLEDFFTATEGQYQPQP

IC50 [1] [nM]	IC50 [2] [nM]	IC50 [3] [nM]	IC50 [4] [nM]	SMILES
10 to 100	≤ 10	100 to 1000	10 to 100	C[C@@H]1[C@H](NC(=O)c2ccc(C3CC3)cc2F)CCCN1c1cnc(C(N)=O)c(Nc2cc(CN3CCOCC3)ns2)n1 [Example D-173, 5-[(2R,3R)-3-(4-cyclopropyl-2-fluorobenzamido)-2-methylpiperidin-1-yl]-3-{[3-(morpholin-4-ylmethyl)-1,2-thiazol-5-yl]amino}pyrazine-2-carboxamide]
100 to 1000	≤ 10	100 to 1000	10 to 100	CN1CCN(c2ccc(Nc3nc(N4CCC[C@@H](n5ccc6cc(C7CC7)cc(F)c6c5=O)C4)cnc3C(N)=O)cc2)CC1 [Example D-174, 5-[(3R)-3-(6-cyclopropyl-8-fluoro-1-oxo-1,2-dihydroisoquinolin-2-yl)piperidin-1-yl]-3-{[4-(4-methylpiperazin-1-yl)phenyl]amino}pyrazine-2-carboxamide]
1000 to 10000	10 to 100	1000 to 10000	1000 to 10000	Cc1cc(Nc2cc(N3CCC[C@@H](NC(=O)N(C)C)[C@H]3C)cnc2C(N)=O)sn1 [Example D-175, 5-[(2R,3R)-3-[(dimethylcarbamoyl)amino]-2-methylpiperidin-1-yl]-3-[(3-methyl-1,2-thiazol-5-yl)amino]pyridine-2-carboxamide]
10 to 100	≤ 10	100 to 1000	10 to 100	C[C@@H]1[C@H](NC(=O)c2ccc(C3CC3)cc2F)CCCN1c1cnc(C(N)=O)c(Nc2cc(CN3CCCCC3)ns2)n1 [Example D-176, 5-[(2R,3R)-3-(4-cyclopropyl-2-fluorobenzamido)-2-methylpiperidin-1-yl]-3-{[3-(piperidin-1-ylmethyl)-1,2-thiazol-5-yl]amino}pyrazine-2-carboxamide]
1000 to 10000	10 to 100	1000 to 10000	1000 to 10000	CN1CCN(c2ccc(Nc3cc(N4CCC[C@@H](n5ccc6cc(C7CC7)ccc6c5=O)C4)cnc3C(N)=O)cc2)CC1 [Example D-178, 5-[(3R)-3-(6-cyclopropyl-1-oxo-1,2-dihydroisoquinolin-2-yl)piperidin-1-yl]-3-{[4-(4-methylpiperazin-1-yl)phenyl]amino}pyridine-2-carboxamide]
> 10000	100 to 1000	1000 to 10000	1000 to 10000	CN1CCN(c2ccc(Nc3nc(N4CCC[C@@H](n5ccc6cc(C7CC7)ccc6c5=O)C4)cnc3C(N)=O)nc2)CC1 [Example D-179, 5-[(3R)-3-(6-cyclopropyl-1-oxo-1,2-dihydroisoquinolin-2-yl)piperidin-1-yl]-3-{[5-(4-methylpiperazin-1-yl)pyridin-2-yl]amino}pyrazine-2-carboxamide]
> 10000	100 to 1000	> 10000	> 10000	C[C@@H]1[C@H](NC(=O)N(C)C)CCCN1c1cnc(C(N)=O)c(Nc2ccc(N3CCN(C)CC3)cn2)n1 [Example D-180, 5-[(2R,3R)-3-[(dimethylcarbamoyl)amino]-2-methylpiperidin-1-yl]-3-{[5-(4-methylpiperazin-1-yl)pyridin-2-yl]amino}pyrazine-2-carboxamide]
100 to 1000	≤ 10	1000 to 10000	10 to 100	Cc1cc(Nc2nc(N3C[C@H](NC(=O)c4ccc(C5CC5)cc4F)CC[C@@H]3C)cnc2C(N)=O)sn1 [Example D-181, 5-[(2S,5R)-5-(4-cyclopropyl-2-fluorobenzamido)-2-methylpiperidin-1-yl]-3-[(3-methyl-1,2-thiazol-5-yl)amino]pyrazine-2-carboxamide]
10 to 100	≤ 10	100 to 1000	100 to 1000	C[C@@H]1[C@H](NC(=O)N(C)C)CCCN1c1cnc(C(N)=O)c(Nc2ccc(N3CCN(C4CCCC4)CC3)cc2)n1 [Example D-182, 3-{[4-(4-cyclopentylpiperazin-1-yl)phenyl]amino}-5-[(2R,3R)-3-[(dimethylcarbamoyl)amino]-2-methylpiperidin-1-yl]pyrazine-2-carboxamide]
1000 to 10000	≤ 10	> 10000	10 to 100	Cn1cc(Nc2nc(N3CCC[C@@H](n4ccc5cc(C6CC6)ccc5c4=O)C3)cnc2C(N)=O)cn1 [Example D-184, 5-[(3R)-3-(6-cyclopropyl-1-oxo-1,2-dihydroisoquinolin-2-yl)piperidin-1-yl]-3-[(1-methyl-1H-pyrazol-4-yl)amino]pyrazine-2-carboxamide]
10 to 100	≤ 10	100 to 1000	10 to 100	C[C@@H]1[C@H](NC(=O)c2ccc(C3CC3)cc2)CCCN1c1cnc(C(N)=O)c(Nc2cnn(C3CCN(C)CC3)c2)n1 [Example D-185, 5-[(2R,3R)-3-(4-cyclopropylbenzamido)-2-methylpiperidin-1-yl]-3-{[1-(1-methylpiperidin-4-yl)-1H-pyrazol-4-yl]amino}pyrazine-2-carboxamide]
1000 to 10000	10 to 100	> 10000	100 to 1000	Cc1cc(Nc2nc(N3CCC[C@@H](c4ncc(-c5ccc(C6CC6)cc5)[nH]4)[C@H]3C)cnc2C(N)=O)sn1 [Example D-186, 5-[(2R,3R)-3-[5-(4-cyclopropylphenyl)-1H-imidazol-2-yl]-2-methylpiperidin-1-yl]-3-[(3-methyl-1,2-thiazol-5-yl)amino]pyrazine-2-carboxamide]
100 to 1000	10 to 100	1000 to 10000	100 to 1000	C[C@@H]1[C@H](NC(=O)c2ccc(C3CC3)cc2)CCCN1c1cnc(C(N)=O)c(Nc2cnn(CCN(C)C)c2)n1 [Example D-187, 5-[(2R,3R)-3-(4-cyclopropylbenzamido)-2-methylpiperidin-1-yl]-3-({1-[2-(dimethylamino)ethyl]-1H-pyrazol-4-yl}amino)pyrazine-2-carboxamide]
100 to 1000	≤ 10	100 to 1000	10 to 100	C[C@@H]1[C@H](NC(=O)c2ccc(C3CC3)cn2)CCCN1c1cnc(C(N)=O)c(Nc2ccc(N3CCN(C)CC3)cc2)n1 [Example D-188, 5-[(2R,3R)-3-(5-cyclopropylpyridine-2-amido)-2-methylpiperidin-1-yl]-3-{[4-(4-methylpiperazin-1-yl)phenyl]amino}pyrazine-2-carboxamide]

SMILES	IC50 [1] [nM]	IC50 [2] [nM]	IC50 [3] [nM]	IC50 [4] [nM]
CC1(c2ccc(Nc3nc(N4CCC[C@@H](n5ccc6cc(C7CC7)ccc6c5=O)C4)cnc3C(N)=O)cc2)CCN(C2CCCC2)CC1 [Example D-177, 3-{[4-(1-cyclopentyl-4-methylpiperidin-4-yl)phenyl]amino}-5-[(3R)-3-(6-cyclopropyl-1-oxo-1,2-dihydroisoquinolin-2-yl)piperidin-1-yl]pyrazine-2-carboxamide]	10 to 100	≤ 10	10 to 100	≤ 10
C[C@@H]1[C@H](NC(=O)c2ccc(N(C)C)cc2)CCCN1c1cnc(C(N)=O)c(Nc2ccc(C3(C)CCN(C4CCCC4)CC3)cc2)n1 [Example D-183, 3-{[4-(1-cyclopentyl-4-methylpiperidin-4-yl)phenyl]amino}-5-[(2R,3R)-3-[4-(dimethylamino)benzamido]-2-methylpiperidin-1-yl]pyrazine-2-carboxamide]	10 to 100	≤ 10	10 to 100	10 to 100
